From patent publication US20240390340A1 (INCYTE CORPORATION, priority 2023, published 2024)

What was measured:
KRAS G12D = KRAS G12D (Homo sapiens, UniProt P01116, G12D); experiment: GDP-GTP exchange assay (bodipy-GDP/GppNHp, SOS1), KRAS G12D; assay type: biochemical; conditions: bodipy-loaded KRAS G12D 2.5 nM, 4 h pre-incubation; value for the most potent isomer quoted for certain compounds; read-out: G12D (KRAS G12D exchange assay IC50)
KRAS G12V = KRAS G12V (Homo sapiens, UniProt P01116, G12V); experiment: GDP-GTP exchange assay (bodipy-GDP/GppNHp, SOS1), KRAS G12V; assay type: biochemical; conditions: KRAS G12V mutant; value for the most potent isomer quoted for certain compounds; read-out: G12V (KRAS G12V exchange assay IC50)
Chain of KRAS G12V (P01116 1-188 isoform P01116-2 G12V): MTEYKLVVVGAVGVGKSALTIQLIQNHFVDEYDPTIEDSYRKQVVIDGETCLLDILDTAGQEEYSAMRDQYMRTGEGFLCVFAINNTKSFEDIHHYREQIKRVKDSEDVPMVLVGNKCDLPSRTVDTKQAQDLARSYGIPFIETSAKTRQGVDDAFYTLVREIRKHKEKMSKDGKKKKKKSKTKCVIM

Chain of KRAS G12D (P01116 1-188 isoform P01116-2 G12D): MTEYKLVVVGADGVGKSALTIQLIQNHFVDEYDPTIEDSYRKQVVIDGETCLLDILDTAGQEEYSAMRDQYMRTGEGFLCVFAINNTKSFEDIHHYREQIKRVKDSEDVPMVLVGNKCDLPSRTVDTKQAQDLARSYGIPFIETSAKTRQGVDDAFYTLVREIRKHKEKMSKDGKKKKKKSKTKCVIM

| Structure (SMILES) | IC50 (KRAS G12D) | IC50 (KRAS G12V) |
| --- | --- | --- |
| Cc1nc2c(F)c(-c3cccc(Cl)c3Cl)c(CCC#N)cc2c2c1cc([C@H]1C[C@H](CCc3nccn3C)CN1C(=O)C1CC1)n2[C@H]1[C@H]2CN[C@@H]1C2 [Example 89] | ≤ 100 nM | ≤ 100 nM |
| Cc1nc2c(F)c(-c3cccc(Cl)c3Cl)c(CCC#N)cc2c2c1cc([C@H]1C[C@H](Oc3cncnc3)CN1C(=O)C1CC1)n2[C@H]1[C@H]2CN[C@@H]1C2 [Example 136] | ≤ 100 nM | ≤ 100 nM |
| N#CCCc1cc2c(nc(C3CC4CCCC3N4)c3cc([C@H]4C[C@H](OCc5c(F)cccc5F)CN4C(=O)C4CC4)n([C@H]4[C@H]5CN[C@@H]4C5)c32)c(F)c1-c1cccc(Cl)c1Cl (stereo partly shown) [Example 246] | 100 to 1000 nM | ≤ 100 nM |
| Cc1nc2c(F)c(-c3cccc(Cl)c3Cl)c(CCC#N)cc2c2c1cc([C@H]1C[C@H](OCc3cccnc3)CN1C(=O)C1CC1)n2[C@H]1[C@H]2CN[C@@H]1C2 [Example 95] | ≤ 100 nM | ≤ 100 nM |
| Cc1nc2c(F)c(-c3cccc(Cl)c3Cl)c(CCC#N)cc2c2c1cc([C@H]1C[C@H](n3cc(C4CC4)nn3)CN1C(=O)C1CC1)n2[C@H]1[C@H]2CN[C@@H]1C2 [Example 179] | ≤ 100 nM | ≤ 100 nM |
| Cc1nc2c(F)c(-c3cccc(Cl)c3Cl)c(CCC#N)cc2c2c1cc([C@H]1C[C@H](OCc3c(F)cccc3C#N)CN1C(=O)C1CC1)n2[C@H]1[C@H]2CN[C@@H]1C2 [Example 126] | ≤ 100 nM | ≤ 100 nM |
| CCn1cc(CO[C@H]2C[C@H](c3cc4c(C)nc5c(F)c(-c6cccc(Cl)c6Cl)c(CCC#N)cc5c4n3[C@H]3[C@H]4CN[C@@H]3C4)N(C(=O)C3CC3)C2)nn1 [Example 231] | ≤ 100 nM | ≤ 100 nM |
| CN1CCC(c2nc3c(F)c(-c4cccc(Cl)c4Cl)c(CCC#N)cc3c3c2cc([C@H]2C[C@H](OCc4c(F)cccc4F)CN2C(=O)C2CC2)n3[C@H]2[C@H]3CN[C@@H]2C3)CC1 [Example 236] | ≤ 100 nM | ≤ 100 nM |
| Cc1nc2c(F)c(-c3cccc(Cl)c3Cl)c(CCC#N)cc2c2c1cc([C@H]1C[C@H](OCc3cnn(C)n3)CN1C(=O)C1CC1)n2[C@H]1[C@H]2CN[C@@H]1C2 [Example 105] | ≤ 100 nM | ≤ 100 nM |
| Cc1nc2c(F)c(-c3cccc(Cl)c3Cl)c(CCC#N)cc2c2c1cc([C@H]1C[C@H](n3cc(C4CCOC4)nn3)CN1C(=O)C1CC1)n2[C@H]1C2CNC1C2 (stereo partly shown) [Example 181] | ≤ 100 nM | ≤ 100 nM |
| Cc1nc2c(F)c(-c3cccc(Cl)c3Cl)c(CCC#N)cc2c2c1cc([C@H]1C[C@H](Oc3cccc(C#N)c3)[C@@H](C)N1C(=O)C1CC1)n2[C@H]1[C@H]2CN[C@@H]1C2 [Example 213] | 100 to 1000 nM | ≤ 100 nM |
| Cc1nc2c(F)c(-c3cccc(Cl)c3Cl)c(CCC#N)cc2c2c1cc([C@H]1C[C@H](OCc3ccc(C#N)cc3)CN1C(=O)C1CC1)n2[C@H]1[C@H]2CN[C@@H]1C2 [Example 152] | ≤ 100 nM | ≤ 100 nM |
| Cc1nc(CO[C@H]2C[C@H](c3cc4c(C)nc5c(F)c(-c6cccc(Cl)c6Cl)c(CCC#N)cc5c4n3[C@H]3[C@H]4CN[C@@H]3C4)N(C(=O)C3(C)CC3)C2)cs1 [Example 128] | ≤ 100 nM | ≤ 100 nM |
| Cc1nc2c(F)c(-c3cccc(Cl)c3Cl)c(CCC#N)cc2c2c1cc([C@H]1C[C@H](OCC3CCCC3)CN1C(=O)C1CC1)n2[C@H]1[C@H]2CN[C@@H]1C2 [Example 153] | ≤ 100 nM | ≤ 100 nM |
| COC(=O)N1C[C@@H](Oc2ccccn2)C[C@@H]1c1cc2c(C)nc3c(F)c(-c4cccc(Cl)c4Cl)c(CCC#N)cc3c2n1[C@H]1[C@H]2CN[C@@H]1C2 [Example 162] | ≤ 100 nM | ≤ 100 nM |
| Cc1nc2c(F)c(-c3cccc(Cl)c3Cl)c(CCC#N)cc2c2c1cc([C@H]1C[C@H](OCc3ccc(Cl)cc3C#N)CN1C(=O)C1CC1)n2[C@H]1[C@H]2CN[C@@H]1C2 [Example 159] | ≤ 100 nM | ≤ 100 nM |
| Cc1ccnc(C)c1CO[C@H]1C[C@H](c2cc3c(C)nc4c(F)c(-c5cccc(Cl)c5Cl)c(CCC#N)cc4c3n2[C@H]2[C@H]3CN[C@@H]2C3)N(C(=O)C2(C)CC2)C1 [Example 140] | ≤ 100 nM | ≤ 100 nM |
| CC(C)(O)c1ccc(-c2nc3c(F)c(-c4cccc(Cl)c4Cl)c(CCC#N)cc3c3c2cc([C@H]2C[C@H](OCc4c(F)cccc4F)CN2C(=O)C2CC2)n3[C@H]2[C@H]3CN[C@@H]2C3)cn1 [Example 158] | ≤ 100 nM | ≤ 100 nM |
| Cc1nc2c(F)c(-c3cccc(Cl)c3Cl)c(CCC#N)cc2c2c1cc([C@H]1C[C@H](Oc3cccc(C(=O)N4CCOCC4)c3)CN1C(=O)C1CC1)n2[C@H]1[C@H]2CN[C@@H]1C2 [Example 222] | ≤ 100 nM | ≤ 100 nM |
| COc1ccc(CO[C@H]2C[C@H](c3cc4c(C)nc5c(F)c(-c6cccc(Cl)c6Cl)c(CCC#N)cc5c4n3[C@H]3[C@H]4CN[C@@H]3C4)N(C(=O)C3CC3)C2)c(C#N)c1 [Example 252] | ≤ 100 nM | ≤ 100 nM |
| Cc1nc2c(F)c(-c3cccc(Cl)c3Cl)c(CCC#N)cc2c2c1cc([C@H]1C[C@H](OC(C)c3c(F)cccc3F)CN1C(=O)C1CC1)n2[C@H]1[C@H]2CN[C@@H]1C2 (stereo partly shown) [Example 227] | ≤ 100 nM | ≤ 100 nM |
| Cc1nc2c(F)c(-c3cccc(Cl)c3Cl)c(CCC#N)cc2c2c1cc([C@H]1C[C@H](n3cc(C4(C)CC4)nn3)CN1C(=O)C1CC1)n2[C@H]1[C@H]2CN[C@@H]1C2 [Example 224] | ≤ 100 nM | ≤ 100 nM |

More lines, now with the values ahead:

| IC50 (KRAS G12D) | IC50 (KRAS G12V) | Structure (SMILES) |
| --- | --- | --- |
| ≤ 100 nM | ≤ 100 nM | Cc1nc2c(F)c(-c3cccc(Cl)c3Cl)c(CCC#N)cc2c2c1cc([C@H]1C[C@H](OC[C@@H]3CCOC3)CN1C(=O)C1CC1)n2[C@H]1[C@H]2CN[C@@H]1C2 [Example 373] |
| ≤ 100 nM | ≤ 100 nM | Cc1nc2c(F)c(-c3cccc(Cl)c3Cl)c(CCC#N)cc2c2c1cc([C@H]1C[C@H](n3cc(C(F)F)nn3)CN1C(=O)C1CC1)n2[C@H]1[C@H]2CN[C@@H]1C2 [Example 380] |
| ≤ 100 nM | ≤ 100 nM | Cc1nc2c(F)c(-c3cccc(Cl)c3Cl)c(CCC#N)cc2c2c1cc([C@H]1C[C@H](n3cncn3)CN1C(=O)C1CC1)n2[C@H]1[C@H]2CN[C@@H]1C2 [Example 276] |
| ≤ 100 nM | ≤ 100 nM | CCOC(=O)c1cnn([C@H]2C[C@H](c3cc4c(C)nc5c(F)c(-c6cccc(Cl)c6Cl)c(CCC#N)cc5c4n3[C@H]3[C@H]4CN[C@@H]3C4)N(C(=O)C3CC3)C2)n1 [Example 393] |
| ≤ 100 nM | ≤ 100 nM | Cc1nc2c(F)c(-c3cccc(Cl)c3Cl)c(CCC#N)cc2c2c1cc([C@H]1C[C@H](Oc3ccc(C#N)cc3F)CN1C(=O)C1CC1)n2[C@H]1[C@H]2CN[C@@H]1C2 [Example 291] |
| ≤ 100 nM | ≤ 100 nM | Cc1cn([C@H]2C[C@H](c3cc4c(C)nc5c(F)c(-c6cccc(Cl)c6Cl)c(CCC#N)cc5c4n3[C@H]3[C@H]4CN[C@@H]3C4)N(C(=O)C3CC3)C2)cn1 [Example 282] |
| ≤ 100 nM | ≤ 100 nM | Cc1nc2c(F)c(-c3cccc(Cl)c3Cl)c(CCC#N)cc2c2c1cc([C@H]1C[C@H](Oc3ccc(C#N)nc3)CN1C(=O)C1CC1)n2[C@H]1[C@H]2CN[C@@H]1C2 [Example 290] |
| ≤ 100 nM | ≤ 100 nM | Cc1cc(C)n([C@H]2C[C@H](c3cc4c(C)nc5c(F)c(-c6cccc(Cl)c6Cl)c(CCC#N)cc5c4n3[C@H]3[C@H]4CN[C@@H]3C4)N(C(=O)C3CC3)C2)n1 [Example 355] |
| ≤ 100 nM | ≤ 100 nM | CCc1nnn([C@H]2C[C@H](c3cc4c(C)nc5c(F)c(-c6cccc(Cl)c6Cl)c(CCC#N)cc5c4n3[C@H]3[C@H]4CN[C@@H]3C4)N(C(=O)C3CC3)C2)c1-c1ccccc1 [Example 392] |
| ≤ 100 nM | ≤ 100 nM | Cc1ccn([C@H]2C[C@H](c3cc4c(C)nc5c(F)c(-c6cccc(Cl)c6Cl)c(CCC#N)cc5c4n3[C@H]3[C@H]4CN[C@@H]3C4)N(C(=O)C3CC3)C2)n1 [Example 315] |
| ≤ 100 nM | ≤ 100 nM | COc1ncc(Br)cc1O[C@H]1C[C@H](c2cc3c(C)nc4c(F)c(-c5cccc(Cl)c5Cl)c(CCC#N)cc4c3n2[C@H]2[C@H]3CN[C@@H]2C3)N(C(=O)C2CC2)C1 [Example 450] |
| ≤ 100 nM | ≤ 100 nM | COC(=O)c1ccc(-c2nnn([C@H]3C[C@H](c4cc5c(C)nc6c(F)c(-c7cccc(Cl)c7Cl)c(CCC#N)cc6c5n4[C@H]4[C@H]5CN[C@@H]4C5)N(C(=O)C4CC4)C3)n2)cc1 [Example 435] |
| ≤ 100 nM | ≤ 100 nM | Cc1nc2c(F)c(-c3cccc(Cl)c3Cl)c(CCC#N)cc2c2c1cc([C@H]1C[C@H](Oc3cc(N4CC(C(F)F)C4)ccn3)CN1C(=O)C1CC1)n2[C@H]1[C@H]2CN[C@@H]1C2 [Example 371] |
| ≤ 100 nM | ≤ 100 nM | Cc1nc2c(F)c(-c3cccc(Cl)c3Cl)c(CCC#N)cc2c2c1cc([C@H]1C[C@H](n3nc(CC#N)nc3C)CN1C(=O)C1CC1)n2[C@H]1[C@H]2CN[C@@H]1C2 [Example 351] |
| ≤ 100 nM | ≤ 100 nM | COc1cc(C#N)ccc1O[C@H]1C[C@H](c2cc3c(C)nc4c(F)c(-c5cccc(Cl)c5Cl)c(CCC#N)cc4c3n2[C@H]2[C@H]3CN[C@@H]2C3)N(C(=O)C2CC2)C1 [Example 292] |
| ≤ 100 nM | ≤ 100 nM | Cc1nc2c(F)c(-c3cccc(Cl)c3Cl)c(CCC#N)cc2c2c1cc([C@H]1C[C@H](n3ncc(C#N)n3)CN1C(=O)C1CC1)n2[C@H]1[C@H]2CN[C@@H]1C2 [Example 346] |
| ≤ 100 nM | ≤ 100 nM | COCCn1cc(O[C@H]2C[C@H](c3cc4c(C)nc5c(F)c(-c6cccc(Cl)c6Cl)c(CCC#N)cc5c4n3[C@H]3[C@H]4CN[C@@H]3C4)N(C(=O)C3CC3)C2)cn1 [Example 441] |
| ≤ 100 nM | ≤ 100 nM | Cc1cnn([C@H]2C[C@H](c3cc4c(C)nc5c(F)c(-c6cccc(Cl)c6Cl)c(CCC#N)cc5c4n3[C@H]3[C@H]4CN[C@@H]3C4)N(C(=O)C3CC3)C2)n1 [Example 344] |
| ≤ 100 nM | ≤ 100 nM | Cc1nc2c(F)c(-c3cccc(Cl)c3Cl)c(CCC#N)cc2c2c1cc([C@H]1C[C@H](OC3CC3C)CN1C(=O)C1CC1)n2[C@H]1[C@H]2CN[C@@H]1C2 (stereo partly shown) [Example 379] |
